Data: publication PMC5303695 (Science (New York, N.Y.), 2016)

Molecular target: PodA30–162 (Mycolicibacterium fortuitum, UniProt K0V2D8)
Experiment: X-ray crystal structure, […] Å
Type: binding
Conditions: co-crystal; solvent-exposed active site, stacking with F70

Oc1cccc2nc3ccccc3nc12 [1-hydroxyphenazine]
X-ray crystal structure, 1.8 Å: Crystal formation occurred only in the presence of 1-OH-PHZ, which was visible in a putative
